Test results: patent US6284768A, “Src family SH2 domain inhibitors” (Boehringer Ingelheim Pharmaceuticals, Inc., priority 1999, dated 2001)

Target: T1, p56lck GST-SH2 (lck SH2 domain) (Homo sapiens, UniProt P06239)
T1 construct: GST (N)
Test: Receptor-ligand equilibrium binding constants by surface plasmon resonance (biosensor), lck SH2 domain
Method: The general methods for the determination of Receptor-Ligand Kinetic and Equilibrium Binding Constants using Surface Plasmon Resonance as applied to the lck SH2 Domain have been described in: M. M. Morelock, R. H. Ingraham, R. Betageri.
General Biosensor Methods.
The mobile phase buffer, 10 mM HEPES, pH 7.4, 150 mM NaCl, and 0.05% P-20, was maintained at a flow rate of 5 μL/min in all experiments. All buffers and protein solutions were filtered through a 0.2 um filter and degassed immediately before use.
Strepavidin was diluted to 0.25 mg/ml in 20 mM NaOAc buffer, pH 4.5 and immobilized by free amine coupling to approximately 3000 RU for all 4 flow cells from a single sensor chip .
Surface Kd Determinations.
The surface was regenerated by 4μL of 20 mM HCl followed by 4 μL of 150 mM Tris base. The values used in the analysis were the equilibrium plateau values from which the sample refractive index has been subtracted. For the data analyzed for linear function the equilibrium plateau values without the sample refractive index subtracted were used. Free solution Kd determinations. In a 96 well microtiter plate 20 nM SH2 domain suspended in running buffer containing 0.2 mg/ml BSA and 1 mM DT'T was distributed in 100 μL per well. The highest concentration of compound tested was added to the last well and titrated with 2 fold dilutions for a final of 10 concentrations to be run. 25 μL of the mixture was injected over a strepavidin-biotin-ε-aminohexanoic acid-EGQpYEEIPIA surface and regenerated with 4 μL of 20 mM HCl. […], of 150 mM Tris base was injected after every 11 samples. Typically 8 assays were run in an overnight programmed run.

[1] = Table 1, compounds of formula (II)

T1 sequence (P06239 127-224 limits assumed): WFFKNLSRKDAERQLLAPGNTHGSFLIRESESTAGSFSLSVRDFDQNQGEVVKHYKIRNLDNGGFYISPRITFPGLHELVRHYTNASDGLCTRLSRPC

Structure (SMILES)	Kd [1] [µM]	Kd (Table 2, compounds of formula (III)) [µM]
COc1ccc(Cn2ccc(C)c(NC(=O)[C@H](Cc3ccc(CC(=O)O)cc3)NC(=O)[C@@H](C)c3ccc4cc(OC)ccc4c3)c2=O)cc1 [Compound 62]	8.8	
COc1ccc(Cn2ccc(C)c(NC(=O)[C@H](Cc3ccc(CC(=O)O)cc3)NC(=O)Cc3cccc4ccccc34)c2=O)cc1 [Compound 88]	4.4	
Cc1ccn(C/C=C/c2ccccc2)c(=O)c1NC(=O)C(Cc1ccc(C(C)(C)C(=O)O)cc1)NC(=O)C(C)(C)c1ccc2ccccc2c1 (centres unmarked) [Compound 177]	3.2	
COc1ccc(Cn2c(C)cc(C)c(NC(=O)[C@H](Cc3ccc(CC(=O)O)cc3)NC(=O)Cc3cccc4ccccc34)c2=O)cc1 [Compound 91]	4.8	
Cc1ccn(Cc2ccc(C(C)C)cc2)c(=O)c1NC(=O)[C@H](Cc1ccc(N(O)C(=O)C(=O)O)cc1)NC(=O)Cc1ccc(N(C)C)cc1 [Compound 96]	23	
Cc1ccn(Cc2ccc(Cl)cc2)c(=O)c1NC(=O)[C@H](Cc1ccc(CC(=O)O)cc1)NC(=O)Cc1cccc2ccccc12 [Compound 55]	15	
CCc1ccn(Cc2ccc(OC)cc2)c(=O)c1NC(=O)[C@H](Cc1ccc(CC(=O)O)cc1)NC(=O)Cc1cccc2ccccc12 [Compound 92, 3-[2'-(S)-(1'"-Naphthylacetyl)amino-3'-(4"-carboxymethyl)benzene]propanoylamino-1-(4-methoxy)benzyl-4-ethyl-2-pyridone]	3.8	
Cc1ccn(CC2CCOC2)c(=O)c1NC(=O)C(Cc1ccc(C(C)(C)C(=O)O)cc1)NC(=O)Cc1cccc2ccccc12 (centres unmarked) [Compound 210]	15	
COC1CCC(Cn2ccc(C)c(NC(=O)C(Cc3ccc(C(C)(C)C(=O)O)cc3)NC(=O)Cc3ccc4ccccc4c3)c2=O)CC1 (centres unmarked) [Compound 239]	3.2	
Cc1ccn(Cc2ccoc2)c(=O)c1NC(=O)C(Cc1ccc(C(C)(C)C(=O)O)cc1)NC(=O)C(C)(C)c1ccc2ccccc2c1 (centres unmarked) [Compound 203]	11	
Cc1ccn(Cc2ccc(C(=O)C(F)(F)F)cc2)c(=O)c1NC(=O)C(Cc1ccc(C(C)(C)C(=O)O)cc1)NC(=O)Cc1ccc2ccccc2c1 (centres unmarked) [Compound 226]	33	
COc1ccc(Cn2ncc(C)c(NC(=O)C(Cc3ccc(C(C)(C)C(=O)O)cc3)NC(=O)Cc3ccccc3[N+](=O)[O-])c2=O)cc1 (centres unmarked) [Compound 247]		5.2
COc1ccc(Cn2ccc(C)c(NC(=O)[C@H](Cc3ccc(NC(=O)C(=O)O)cc3)NC(=O)Cc3csc(-c4cnccn4)n3)c2=O)cc1 [Compound 17]	3.4	
COc1ccc(Cn2ccc(C)c(NC(=O)[C@H](Cc3ccc(CC(=O)O)cc3)NC(=O)Cc3cccc(Oc4ccccc4)c3)c2=O)cc1 [Compound 61]	3.3	
COc1ccc(Cn2ccc(C)c(NC(=O)[C@H](Cc3ccc(NC(=O)C(=O)O)cc3)NC(=O)Nc3ccc(C(C)C)cc3)c2=O)cc1 [Compound 103]	12	
COCCOCn1ccc(C)c(NC(=O)C(Cc2ccc(C(C)(C)C(=O)O)cc2)NC(=O)C(C)(C)c2ccc3ccccc3c2)c1=O (centres unmarked) [Compound 190]	43	
CCCCCn1ccc(C)c(NC(=O)C(Cc2ccc(C(C)(C)C(=O)O)cc2)NC(=O)Cc2cccc3ccccc23)c1=O (centres unmarked) [Compound 191]	3.1	
Cc1ccc(Cn2ccc(C)c(NC(=O)[C@H](Cc3ccc(CC(=O)O)cc3)NC(=O)Cc3cccc4ccccc34)c2=O)cc1 [Compound 56]	7.1	
COc1ccc(Cn2ccc(C)c(NC(=O)[C@H](Cc3ccc(NC(=O)C(=O)O)cc3)NC(=O)Cc3ccccc3N(C)C)c2=O)cc1 [Compound 35]	4	
COc1ccc(Cn2ccc(C)c(NC(=O)[C@H](Cc3ccc(CC(=O)O)cc3)NC(=O)COc3cccc4cnccc34)c2=O)cc1 [Compound 84]	400	

Now from value to compound:

Kd [1] [µM]	Kd (Table 2, compounds of formula (III)) [µM]	Structure (SMILES)
0.72		CCCCCCn1cc(Br)c(C)c(NC(=O)C(Cc2ccc(C(C)(C)C(=O)O)cc2)NC(=O)Cc2ccc3ccccc3c2)c1=O (centres unmarked) [Compound 238]
1.3		COc1ccc(Cn2ccc(C)c(NC(=O)[C@H](Cc3ccc(C(F)(F)P(=O)(O)O)cc3)NC(C)=O)c2=O)cc1 [Compound 65]
0.35		COc1ccc(Cn2ccc(C)c(NC(=O)[C@H](Cc3ccc(NC(=O)C(=O)O)cc3)NC(=O)Cc3ccc4ccccc4c3)c2=O)cc1 [Compound 32]
1.3		COc1ccc(Cn2ccc(C)c(NC(=O)[C@H](Cc3ccc(NC(=O)C(=O)O)cc3)NC(=O)Cc3c[nH]c4ccccc34)c2=O)cc1 [Compound 5]
0.06		COc1ccc(Cn2cc(Br)c(C)c(NC(=O)[C@H](Cc3ccc(-n4nnc(C(=O)O)c4C(=O)O)cc3)NC(=O)Cc3ccc4ccccc4c3)c2=O)cc1 [Compound 241, 3-[2'-(S)-(2""-Naphthylacetyl)amino-3'-[4"-(4'",5'"-dicarboxytriazolyl)]benzene]propanoylamino-1-(4-methoxybenzyl)-5-bromo-4-methyl-2-pyridone]
0.17		COc1ccc(Cn2cc(/C=C/C(N)=O)c(C)c(NC(=O)C(Cc3ccc(C(C)(C)C(=O)O)cc3)NC(=O)Cc3ccc4ccccc4c3)c2=O)cc1 (racemic) [Compound 221, 3-[2'-(R,S)-(2""-Naphthylacetyl)amino-3'-[4"-(1'"-carboxy-1'"-methyl)ethyl]benzene]propanoylamino-5-acrylamido-1-(4-methoxybenzyl)-4-methyl-2-pyridone]
1.5		COc1ccc(Cn2ccc(C)c(NC(=O)[C@H](Cc3ccc(C(C)(C)C(=O)O)cc3)NC(=O)[C@H](C)c3cccc4ccccc34)c2=O)cc1 [Compound 44]
1.4		COCCCCn1ccc(C)c(NC(=O)C(Cc2ccc(C(C)(C)C(=O)O)cc2)NC(=O)C(C)(C)c2ccc3ccccc3c2)c1=O (centres unmarked) [Compound 236]
1.6		COc1ccc(Cn2cc(Br)c(C)c(NC(=O)[C@H](Cc3ccc(C(C)(C)C(=O)O)cc3)NC(=O)C(C)(F)c3ccc(C(F)(F)F)cc3)c2=O)cc1 (some centres unmarked) [Compound 234]
1.7		COc1ccc(Cn2ccc(C)c(NC(=O)[C@H](Cc3ccc(CC(=O)O)cc3)NC(=O)COc3ccc4ccccc4c3)c2=O)cc1 [Compound 166]
0.68		COc1ccc(Cn2ccc(C)c(NC(=O)[C@H](Cc3ccc(NC(=O)C(=O)O)cc3)NC(=O)CNC(=O)c3ccccc3C(=O)O)c2=O)cc1 [Compound 31]
1.5		Cc1ccn(Cc2ccc(C(C)C)cc2)c(=O)c1NC(=O)[C@H](Cc1ccc(C(C)(C)C(=O)O)cc1)NC(=O)Cc1c[nH]c2ccccc12 [Compound 100]
2.9		COc1ccc(Cn2ccc(C)c(NC(=O)[C@H](Cc3ccc(N(O)C(=O)C(=O)O)cc3)NC(=O)Cc3c[nH]c4ccccc34)c2=O)cc1 [Compound 24]
1.1		COc1ccc(Cn2ccc(C)c(NC(=O)[C@H](Cc3ccc(CC(=O)O)cc3)NC(=O)Cc3ccc(CC(C)(C)C)cc3)c2=O)cc1 [Compound 163]
2.1		COc1c(F)c(F)c(Cn2ccc(C)c(NC(=O)C(Cc3ccc(C(C)(C)C(=O)O)cc3)NC(=O)Cc3ccc4ccccc4c3)c2=O)c(F)c1F (centres unmarked) [Compound 153]
2.5		COc1ccc(Cn2ccc(C)c(NC(=O)[C@H](Cc3ccc(NC(=O)C(=O)O)cc3)NC(=O)Cc3c[nH]c4ccc(O)cc34)c2=O)cc1 [Compound 27]
2.6		COc1ccc(Cn2ccc(C)c(NC(=O)[C@H](Cc3ccc(CC(=O)O)cc3)NC(=O)COc3nccc4ccccc34)c2=O)cc1 [Compound 85]
2.1		COc1ccc(Cn2ccc(C)c(NC(=O)[C@H](Cc3ccc(NC(=O)C(=O)O)cc3)NC(=O)Cc3cccc(N(C)C)c3)c2=O)cc1 [Compound 49]
